Laboratory results: publication doi:10.1101/322404v1, “Discovery of a novel stereospecific β-hydroxyacyl-CoA lyase/thioesterase shared by three metabolic pathways in Mycobacterium tuberculosis” (biorxiv, 2018)

Tests used:
[1] = target: T1, Rv2498c (Mycobacterium tuberculosis, UniProt P9WPE1)
T1 construct: gene citE

[2] = target: T1, Rv2498c; remark: listed apart in the source
[3] = target: T1, Rv2498c; remark: listed apart in the source
[4] = target: T1, Rv2498c; remark: listed apart in the source

T1 sequence (P9WPE1 whole entry): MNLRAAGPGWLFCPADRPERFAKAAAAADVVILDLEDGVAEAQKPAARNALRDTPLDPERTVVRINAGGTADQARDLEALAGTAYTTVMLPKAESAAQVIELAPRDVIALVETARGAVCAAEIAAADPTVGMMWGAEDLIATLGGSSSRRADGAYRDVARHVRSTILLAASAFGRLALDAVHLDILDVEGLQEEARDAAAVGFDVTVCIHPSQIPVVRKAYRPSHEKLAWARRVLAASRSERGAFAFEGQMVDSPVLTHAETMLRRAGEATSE

CC(C)(COP(=O)(O)OP(=O)(O)OC[C@H]1O[C@@H](n2cnc3c(N)ncnc32)[C@H](O)[C@@H]1OP(=O)(O)O)[C@@H](O)C(=O)NCCC(=O)NCCSC(=O)C[C@](C)(O)CC(=O)O [(R)-HMG-CoA]
HPLC lyase assay and 1H NMR of products [1]: we found that Rv2498c is a lyase specific for the (R)-HMG-CoA

CC(C)(COP(=O)(O)OP(=O)(O)OC[C@H]1O[C@@H](n2cnc3c(N)ncnc32)[C@H](O)[C@@H]1OP(=O)(O)O)[C@@H](O)C(=O)NCCC(=O)NCCSC(=O)C[C@](C)(O)C(=O)O [(S)-citramalyl-CoA]
X-ray crystal structure, 1.83 A [2]: two citramalyl-CoA molecules

CC(C)(COP(=O)(O)OP(=O)(O)OC[C@H]1O[C@@H](n2cnc3c(N)ncnc32)[C@H](O)[C@@H]1OP(=O)(O)O)[C@@H](O)C(=O)NCCC(=O)NCCSC(=O)C[C@H](O)C(=O)O [(S)-malyl-CoA]
HPLC thioesterase assay [3]: Rv2498c was found to subsequently catalyse the hydrolysis of the thioester bond of (S)-malyl-CoA

CC(C)(COP(=O)(O)OP(=O)(O)OC[C@H]1O[C@@H](n2cnc3c(N)ncnc32)[C@H](O)[C@@H]1OP(=O)(O)O)[C@@H](O)C(=O)NCCC(=O)NCCS [CoA]
X-ray crystal structure, 1.72 A (6ARB) and 2.04 A (6AS5) [4]: A magnesium ion, coordinated pyruvate, and CoA molecule were observed in the active sites
